Results: patent EP0565674B1, “METHOD FOR MEMORY ENHANCEMENT AND QUALITY OF LIFE IMPROVEMENT” (CITY OF HOPE, priority 1991, dated 1993)
Where a name gives a salt, the structure may show the parent alone.

Columns and labels:
CD-1 male mice [1] = assay: T-maze footshock active avoidance training (FAAT), retention after 1 week, weakly trained mice, memory enhancement
Description: (§1) Test Animals. After 1 week in the laboratory, CD-1 male mice obtained from Charles River Breeding Laboratories were caged individually 24-48 hr prior to training and remained singly housed until retention was tested 1 week later. Animal rooms were on a 12-hr light/dark cycle with lights going on at the hour of 0600.
(§2) With the exception of pregnenolone sulfate, all of the substances were dissolved in appropriate amounts of pure DMSO and 2 µl of DMSO alone or containing test substance was injected icv into each mouse after training. Pregnenolone sulfate was dissolved in DMSO and diluted with physiological saline to a final concentration of 1% DMSO or less in saline, and the results of, injections of 2 µl of solutions containing pregnenolone sulfate were compared with those obtained with 2 µl of such saline solutions alone.
(§3) Apparatus, Training and Testing Procedures. The T-maze used for footshock active avoidance training (FAAT) consisted of a black plastic alley (46 cm long) with a start box at one end and two goal boxes (17.5 cm long) at the other. The start box was separated from the alley by a plastic guillotine door that prevented movement down the alley until training began. The alley was 12.5 cm deep and 9.8 cm wide. An electrifiable stainless steel rod floor ran throughout the maze.
(§4) Mice were not permitted to explore the maze before training. A block of training trials began when a mouse was placed in the start box. The guillotine door was raised and a muffled doorbell-type buzzer sounded simultaneously; footshock was 5 sec later through a scrambled grid floor shocker (Colbourn Instruments, model E13-08). The goal box first entered during the first set of trials was designated as "incorrect", and footshock was continued until the mouse entered the other goal box, which in all subsequent trials was designated "correct" for the particular mouse. At the end of each group of trials, the mouse was removed to its home cage.
As training proceeded, a mouse made one of two types of responses. A response latency longer than 5 sec was classed as an escape from the footshock. […]

CD-1 male mice [2] = assay: T-maze footshock active avoidance training (FAAT), retention after 1 week, well-trained mice, prevention of DMSO-induced amnesia; conditions: for trials to criterion compared with DMSO alone / saline alone: 3.5X10^-10 mol icv 2-3 min after FAAT, in DMSO, retention tested one week later, groups of 15 mice
Description: as §1, §2, §3, §4
As training proceeded, a mouse made one of two types of responses. A response latency longer than 5 sec was classed as an escape from the footshock. A response latency less than or equal to 5 sec was considered an avoidance, since the mouse avoided receiving a footshock. Two exclusion criteria were applied to reduce learning variability among mice, as follows. On the first training trials, mice with escape latencies greater than 20 sec were discarded. Mice not having at least one errorless escape latency between 1.5 and 3.5 sec on training trials 3 or 4 were excluded. The total exclusions were fewer than 15%. Mice received five such training trials. One week after training and post-trial administration of vehicle alone or vehicle containing test substance, T-maze training was resumed until each mouse made five avoidance responses in six consecutive training trials (trials to criterion). The recall score was taken to be the percentage of tested mice remembering original training.
In these instances, training was performed under conditions that tend to maximize learning (sound intensity, 65 decibels; footshock current, 0.35 mA; intertrial interval, 45 s).
Surgical Procedure in Preparation for Intracerebroventricular (icv) Administration of Substances. Icv injection was the mode of administration of test substances because this eliminates problems of differential penetration of the blood-brain barrier. The following procedure was performed 24-48 hr prior to training.

CC(=O)C1CCC2C3CC=C4CC(OS(=O)(=O)O)CCC4(C)C3CCC12C (stereo not drawn) [pregnenolone sulfate, 5-pregnen-3β-ol-20-one sulfate, sodium salt]
potency relative to DHEA (CD-1 male mice [1]; memory enhancement in mice): ~1000 times
potency relative to pregnenolone (CD-1 male mice [1]; memory enhancement in mice): approximately 10 times

C[C@]12CC[C@@H]3c4ccc(O)cc4CC[C@H]3[C@@H]1CC[C@@H]2O [estradiol, 1,3,5(10)-estratrien-3,17β-diol]
trials to criterion compared with DMSO alone / saline alone (CD-1 male mice [2]): significantly different from those obtained with DMSO alone and significantly greater than those receiving saline alone

C[C@]12CCC(=O)C=C1CC[C@@H]1[C@@H]2CC[C@]2(C)C(=O)CC[C@@H]12 [androstenedione, 4,androsten-3,17-dione]
trials to criterion compared with DMSO alone / saline alone (CD-1 male mice [2]): significantly fewer trials to criterion than mice receiving DMSO alone

C[C@]12CCC(=O)C=C1CC[C@@H]1[C@@H]2[C@@H](O)C[C@]2(C=O)[C@@H](C(=O)CO)CC[C@@H]12 [aldosterone, 4-pregnen-11β,21-diol-3,18,20-trione]
trials to criterion compared with DMSO alone / saline alone (CD-1 male mice [2]): significantly fewer trials to criterion than mice receiving DMSO alone

C[C@]12CC[C@H](OS(=O)(=O)O)CC1=CC[C@@H]1[C@@H]2CC[C@]2(C)C(=O)CC[C@@H]12 [DHEAS, dehydroepiandrosterone sulfate]
trials to criterion compared with DMSO alone / saline alone (CD-1 male mice [2]): significantly fewer trials to criterion than mice receiving DMSO alone

C[C@]12CC[C@@H]3c4ccc(O)cc4CC[C@H]3[C@@H]1CCC2=O [estrone, 1,3,5(10)-estratrien-3-ol-17-one]
trials to criterion compared with DMSO alone / saline alone (CD-1 male mice [2]): significantly different from those obtained with DMSO alone and significantly greater than those receiving saline alone

C[C@]12CC[C@H](O)CC1=CC[C@@H]1[C@@H]2CC[C@]2(C)C(=O)CC[C@@H]12 [DHEA, 5-androsten-3β-ol-17-one]
trials to criterion compared with DMSO alone / saline alone (CD-1 male mice [2]): significantly fewer trials to criterion than mice receiving DMSO alone

C[C@]12CCC(=O)C[C@@H]1CC[C@@H]1[C@@H]2CC[C@]2(C)[C@@H](O)CC[C@@H]12 [dihydrotestosterone, 5α-androstan-17β-ol-3-one]
trials to criterion compared with DMSO alone / saline alone (CD-1 male mice [2]): significantly fewer trials to criterion than mice receiving DMSO alone

CC(=O)[C@H]1CC[C@H]2[C@@H]3CCC4=CC(=O)CC[C@]4(C)[C@H]3CC[C@]12C [progesterone, 4-pregnen-3,20-dione]
trials to criterion compared with DMSO alone / saline alone (CD-1 male mice [2]): significantly different from those obtained with DMSO alone and significantly greater than those receiving saline alone

CC(=O)[C@H]1CC[C@H]2[C@@H]3CC=C4C[C@@H](O)CC[C@]4(C)[C@H]3CC[C@]12C [pregnenolone, 5-pregnen-3β-ol-20-one]
trials to criterion (CD-1 male mice [1]; weakly trained mice, 3.5X10^-15 mol per mouse icv, p < 0.05 vs vehicle controls (9.30±0.47), mean ± SEM): 7.70±0.55
trials to criterion compared with DMSO alone / saline alone (CD-1 male mice [2]): significantly fewer trials to criterion than mice receiving DMSO alone
potency on a molar basis relative to the other two substances tested (DHEA, testosterone) (CD-1 male mice [2]; from dose-response curves): at least 100 times

C[C@]12CC[C@H]3[C@@H](CCC4=CC(=O)CC[C@@]43C)[C@@H]1CC[C@@H]2O [testosterone, 4-androsten-17β-ol-3-one]
trials to criterion compared with DMSO alone / saline alone (CD-1 male mice [2]): significantly fewer trials to criterion than mice receiving DMSO alone
